From ChEMBL document CHEMBL3507680, “University of Dundee, Gates Library screen for HepG2 cell viability”

Experiment: Human HepG2 cell viability assay in 384 well format
Assay type: toxicity, cell-based
Set-up: dose 125 nL, time 70.5 hour; cytotoxicity at 70.5 h: concentration not given beside the values
Conditions: HepG2 cells, read-out: Inhibition

SMILES | cytotoxicity at 70.5 h [%]
C(=C\c1ccc(CN2CCCC2)cn1)/c1ccccc1 | 6.88
COCCNC(=O)c1ccoc1CN1c2ccccc2CC1C (configuration not stated) | -6.26
CCC(O)(CNCc1ncc[nH]1)c1ccc(Br)cc1 (configuration not stated) | -1.16
CCN(CCNS(=O)(=O)C1CCOCC1)C(=O)OC(C)(C)C | -5.67
O=C(c1ccc[nH]1)N1C[C@H]2CC[C@@H]1CN(c1ncccn1)C2 | -8.11
Cc1cccc(C)c1OCC(=O)NS(=O)(=O)c1c(C)noc1C | -14.4
COC(=O)c1cccn1C1CCN(CCN2C(=O)CCC2=O)CC1 | -5.66
CC(c1cccc(-c2nccn2CCc2ccccn2)c1)N(C)C (configuration not stated) | -7.37
CC(C)C(=O)N1CCCC1C(=O)Nc1cc(C(F)(F)F)ccc1F (configuration not stated) | -17.3
C=C(C)CN1CCC(n2cc(C3CCCC3)nn2)CC1 | -2.5
Cc1ccccc1-n1ncc2c(=O)n(CCN3CCCC3)cnc21 | 26.8
COc1cccc(CSc2nnc(C)n2CC(N)=O)c1 | -98.4
O=C(NCC1(c2ccc(F)cc2)CC1)N1CCC2(CCOC2)C1 (configuration not stated) | 13.9
O=C(c1n[nH]cc1Br)N1CCOCC1 | -4.31
CCn1nc(C)cc1C(=O)N1C[C@@H]2C[C@@H](C)O[C@@H]2C1 | -7.68
CS(=O)(=O)CCCSCc1ccc(Br)c(F)c1 | -1.93
CCC1CN(CCNS(C)(=O)=O)c2ccccc2O1 (configuration not stated) | -2.49
O=C1CN(c2ccc(CNC(=O)NCC3CCOC3)cc2)CCN1 (configuration not stated) | -5.59
Cc1noc(C(C)C)c1C(=O)N1CCC(n2cccn2)CC1 | 13.2
CC(C)CCn1[nH]c(CNc2ccccc2)nc1=O | -10.8
COc1ccccc1Oc1ncccc1CNC(=O)C(O)C(F)(F)F (configuration not stated) | -5.77
CC(Cn1cncn1)NCCN1CCc2ccccc21 (configuration not stated) | -5.52
Cc1cnc2n(c1=O)CC(C(=O)NCc1ccccc1Cl)CS2 (configuration not stated) | 2.42

SMILES | cytotoxicity at 70.5 h [%]
CC(C)C(=O)NC1COC2(CCN(C(=O)c3ccc[nH]3)CC2)C1 (configuration not stated) | -7.92
Cn1nc(CN2CCCC2)c2c1CN(CC1CC1)CC2 | 2.77
COCCn1cc2c(n1)C(CNCc1ccc(F)cc1)OCC2 (configuration not stated) | 0.574
O=C(CCSC1CCc2ccccc2NC1=O)NCCCO (configuration not stated) | -12.2
Cc1ncsc1-c1nc(CC2CCN(C)CC2)nn1Cc1ccccc1 | 8.01
CN(CCc1noc(C2CC2)n1)C(=O)C1(N2CCCC2)CCCC1 | -3.64
CCN1CCN(C(=O)c2cc(C(F)(F)F)n[nH]2)[C@H]2CS(=O)(=O)C[C@H]21 | -18.6
COc1ncccc1NC(=O)NCC1CCS(=O)(=O)C1 (configuration not stated) | -18.6
COc1ccc(-c2cc3nn(CC(=O)NC(C)C)c(=O)n3c(C)n2)cc1 | 1.34
O=C(c1ccncc1)N1CCC(c2nc(O)cc(-c3cccnc3)n2)C1 (configuration not stated) | -17.2
CCO[C@@H]1C[C@H]2CN(S(=O)(=O)c3cccs3)CCN2C1 | -4.39
CO[C@H]1C[C@@H]2CN(C(=O)c3cccc4c3OCCO4)C[C@@H]2C1 | 20.7
O=C(C1=CC2(CCN(CCO)CC2)c2ccccc21)N1CCCC1 | -4.5
CC(Cn1cccn1)NCc1nc(-c2ccccc2Cl)no1 (configuration not stated) | -19.9
CCS(=O)(=O)c1ncc(CN2CCSCC2)n1CCc1ccccc1 | -11.3
COc1ccc(CNCC2CCN(CCO)CC2)cc1F | -5.24
COc1ccc(Cl)cc1NC(=O)CCC1CCCN(Cc2ncon2)C1 (configuration not stated) | -1.15
CN1CCN(CC2CCN(C(=O)CCC3CCCCC3)CC2)CC1 | -2.91
CO[C@H]1CC[C@H]2[C@H]1OCCN2C(=O)c1nn(C)c2ccccc12 | -3.21
Cc1ccsc1C(=O)N1CCCC(c2[nH]ncc2S(C)(=O)=O)C1 (configuration not stated) | -6.4
CC(=O)N1CCCn2nc(CNS(=O)(=O)c3cc(C)cs3)cc2C1 | -4.2
O=c1c2cnc(N3CCCCC3)nc2ccn1Cc1ccco1 | -7.45
CCNC(=O)CN1CCc2c(Br)ccc(F)c2C1 | 5.62

SMILES | cytotoxicity at 70.5 h [%]
Cc1ccc2cc(C(=O)N3CCCCC3c3nc[nH]n3)ccc2n1 (configuration not stated) | 11.1
COc1ccc(C(N)=O)cc1NCc1nc(-c2cccs2)oc1C | -102
CCNc1ncc(CN(CCN(C)C)Cc2ccc(C)s2)cn1 | -7.34
COCc1noc(CCNc2nc(CC3CC3)nc3c2CCNCC3)n1 | 8.9
Cc1cccc(NC(=O)N2CCn3cnc(COCC4CC4)c3C2)c1 | -13.2
COc1ccc(-c2cn3c(n2)CO[C@@H](CNCc2ccccn2)C3)cc1 | -0.00582
CC(C)Oc1ncnc2c1CCN(Cc1ccco1)CC2 | -2.84
COc1cccc(N2CC3(CCN(c4ccc(C)nn4)C3)CC2=O)c1 (configuration not stated) | -2.78
O=S(=O)(N1CCOCC1)N1CCC(Oc2cnccn2)CC1 | 0.596
Cc1cc(C)nc(C2(C)CCCN2CCO)n1 (configuration not stated) | -0.984
Cc1cccc(CN2C(=O)C[C@@H]3[C@@H]2CCN3Cc2ccsc2)n1 | -8.36
CN(C)c1ccc(NC(=O)N2CCc3sccc3C2)cn1 | 4.85
CN(C)[C@@H]1CN(Cc2ccccn2)C[C@H]1c1cn(C)c2ccccc12 | 12
c1ccc(Cn2cc3c(n2)C(COCC2CC2)OCC3)nc1 (configuration not stated) | 8.53
Cc1nc(C2CCCN2CCCS(=O)(=O)N(C)C)no1 (configuration not stated) | 22.2
Cc1ccsc1CNc1ccccc1C(=O)N1CCNC(=O)C1 | 16.9
COCC(=O)N1CCC2(C1)c1ccccc1S(=O)(=O)N2C (configuration not stated) | -9.08
Cc1ccc(CC2COCCN(S(=O)(=O)c3ccccc3)C2)nc1 (configuration not stated) | -0.967
CCN(C(c1cccnc1)c1ccc2c(c1)CCO2)S(C)(=O)=O (configuration not stated) | -4.03
NC(=O)CCN(CC(=O)NCc1cccs1)c1ccc(F)cc1 | -6.81
CN(C)C(=O)N[C@H]1CN(Cc2ccc3c(c2)OCO3)[C@@H]2CCCO[C@H]12 | -12.8
O=C(c1ccsc1)N1CCN2C[C@H](OCc3ccccn3)C[C@H]2C1 | -10.1
Cc1cnccc1-n1nc(C(C)C)nc1CS(C)(=O)=O | -9.46

SMILES | cytotoxicity at 70.5 h [%]
CCn1c(=O)c2sccc2n(CC(=O)Nc2cccc(Cl)c2)c1=O | 8.59
CCS(=O)(=O)N1C[C@@H]2CN(Cc3cccs3)CCO[C@@H]2C1 | 6.04
COc1ccc(C2=Nn3c(CN)nnc3-c3ccccc3C2)cc1 | -18.7
CC(C)N(CC(N)=O)C(=O)c1cc(F)ccc1N1CCN(C)CC1 | -5.36
COc1ncccc1CN1C[C@@H]2C[C@@H](C(=O)NCC3CC3)N(C)[C@@H]2C1 | -12.2
CNC(=O)C1Cn2ccnc2C2(CCN(c3ccc(C)nn3)CC2)O1 (configuration not stated) | -0.593
CCCC(=O)N1CCC(C(=O)NCCNc2ncccn2)CC1 | 0.692
CC1=C(C(=O)N(C)Cc2n[nH]c3c2CCCCC3)C(C)NC(=O)N1 (configuration not stated) | 31
CC(NC(=O)N(C)Cc1ccncc1)c1nncn1C (configuration not stated) | -4.45
CN(C)Cc1ccnc(C2CCCN2Cc2ccncc2)n1 (configuration not stated) | 18.5
CO[C@@H]1CCN(S(=O)(=O)N(C)C)[C@@H]2CN(Cc3ccncc3)C[C@@H]21 | -1.72
O=C(Cn1ccnc1)N1CCC(n2cc(-c3cccc(Cl)c3)nn2)CC1 | 22.5
CCCn1ncc(C(=O)N2CCC(N3CCCCC3)CC2)c1C | -11.6
COc1ccccc1CCN(C)C(=O)NC(C)c1nncn1C (configuration not stated) | -4.33
CC(c1ccc(F)cc1F)N1CCN(Cc2nccn2C)CC1 (configuration not stated) | -0.0589
CCn1cc(NC(=O)c2cccc(CN3C[C@@H](C)O[C@@H](C)C3)c2)nn1 | 4.2
Cc1ccc(C)c(CC(=O)Nc2cccc(C(=O)N(C)C)n2)c1 | 5.58
CC(=O)NCC(=O)N1C[C@H](OCc2cccnc2)[C@H]2COC[C@H]21 | 3.33
Cc1cccnc1C(NC(=O)CNC(=O)c1ccoc1C)C(C)C (configuration not stated) | 3.13
CCc1noc(CNc2ccc(CC(=O)N3CCSCC3)cc2)n1 | -6.52
CCCN1C[C@H](NC(=O)c2cc(C)no2)[C@@H](c2ccc(OC)cc2)C1 | 0.817
CCOC(=O)c1c(NC(=O)CN2CCN(C(C)=O)CC2)sc(C)c1C | -13.3
O=C(NC1CCC1)C1CCC2(CN(C(=O)c3ccno3)C2)O1 (configuration not stated) | -14

SMILES | cytotoxicity at 70.5 h [%]
Cc1cnn(CC(C)Nc2nc(C)cc(N(C)C)n2)c1 (configuration not stated) | -6.1
Cc1n[nH]c(C2CN(CC(=O)NCCc3ccc(F)cc3)CCO2)n1 (configuration not stated) | -114
COCCN1CCCn2cnc(CNC(=O)N(C)C)c2C1 | -3.75
CNC(=O)C1CN(C)CCN(CCCOc2ccccc2F)C1 (configuration not stated) | -3.84
c1cc(-c2n[nH]cc2-c2ccnc(N3CCCC3)n2)ccn1 | -2.36
Cn1cc(C2CCCN2C(=O)CCCc2nc3ccccc3[nH]2)cn1 (configuration not stated) | 4.56
CCOC1CCCN(C(=O)c2[nH]nc(C3CC3)c2Br)C1 (configuration not stated) | -6.37
Cc1cc(CN(C)C(=O)c2cccc(CCC(C)(C)O)c2)no1 | -7.67
Cc1ccc(CN2Cc3ccnn3CC(COCc3cccnc3)C2)o1 (configuration not stated) | -5.79
CC(C)c1cc(N(C)Cc2noc(C3CCCC3)n2)n2nccc2n1 | -13.6
COc1ccc(O[C@H]2COCCN(Cc3cccc4c3OCO4)C2)cc1 | 3.63
O=C(NCC1CCN(C(=O)c2ccoc2)CC1)c1ccccc1Br | -0.695
O=C(NCc1ccccc1)C1=NOC2(CCNC2)C1 (configuration not stated) | -11
CN(C)C(=O)N1C[C@@H]2CC[C@H](C1)N(C(=O)CCCn1cncn1)C2 | -10.6
CCCN1CCCCCC1Cc1c(C(=O)NC)sc2ccccc12 (configuration not stated) | 27.8
O=C1CC(N(C(=O)c2ccccc2Br)C2CC2)C(=O)N1 (configuration not stated) | 2.23
Cn1ccnc1C(=O)N1CCC2(CC1)CC(Oc1cccnc1)CO2 (configuration not stated) | -9.75
O=C(CN1CCOc2ccccc2C1)N1Cc2cnn(CCO)c2C1 | -0.755
COCCO[C@@H]1CCN(Cc2csc(C)n2)[C@H]1Cc1ccccc1 | -8.53
CC(c1cccnc1)N(C)Cc1ccccn1 (configuration not stated) | -7.62
